From patent publication US9434759B1, “Cationic steroidal antimicrobial compounds and methods of manufacturing such compounds” (BRIGHAM YOUNG UNIVERSITY, priority 2015, dated 2016)

Test system: Radiation Induced Oral Mucositis
Experiment: Syrian Hamster Model Radiation Induced Oral Mucositis Study
Type: in vivo
Details: 40 Gy radiation Day 0
Procedure: Various CSA compounds were screened to determine and compare therapeutic effect on oral mucositis. The test was conducted according to a Syrian Hamster Model Radiation Induced Oral Mucositis Study Design as in Table 1. [table] The objective of the study was to identify compounds that can maintain oral mucositis score below 3 in hamster model according to the scoring system in Table 2. [table]

In the case of `CCCCCCCCNC(=O)CC[C@@H](C)[C@H]1CC[C@H]2[C@@H]3[C@H](OCCCN)C[C@@H]4C[C@H](OCCCN)CC[C@]4(C)[C@H]3C[C@H](OCCCN)[C@]12C` [CSA-192], the “reduction in oral mucositis (percent of animal days with mucositis, FIG. 2)” value (topical T.I.D. Day -1 to 28, 300 or 1000 ppm, mucositis evaluated Day 6 to 28) is reported as “greater than 90%” and the “oral mucositis severity scores (FIG. 3)” value (topical T.I.D. Day -1 to 28, score 0-5 every 2 days, Day 6 to 28) is reported as “strongest and longest lasting reduction in oral mucositis”.
